For the data set the following is noted: 101.33 kPa, Liquid; for viscosity: Capillary tube (Ostwald / Ubbelohde) method; for mass density: Pycnometric method.

Molecules are shown by their SMILES. Structures can show the parent of a compound that is named as a salt. Numbers after ± are expanded uncertainties.

From the NIST ThermoML archive (doi:10.1016/j.jct.2017.12.021) come the findings set out here.

On to `CCOC(=O)CC(O)(CC(=O)OCC)C(=O)OCC` [triethyl citrate], for which the viscosity is recorded as 44.12 ± 4.4 mPa·s (293.15 K); 32.1 ± 3.2 mPa·s (298.15 K); 20.79 ± 2.1 mPa·s (303.15 K); 16.55 ± 1.7 mPa·s (308.15 K); 13.18 ± 1.3 mPa·s (313.15 K); 10.24 ± 1 mPa·s (318.15 K). In addition, the viscosity was found to be 8.62 ± 0.87 mPa·s (323.15 K), 7.23 ± 0.73 mPa·s (328.15 K), 6.41 ± 0.65 mPa·s (333.15 K) and 5.71 ± 0.57 mPa·s (338.15 K). In addition, the mass density is, setting by setting: (293.15 K) 1138.4 ± 4.7 kg/m3; (298.15 K) 1134.5 ± 4.7 kg/m3; (303.15 K) 1131.1 ± 4.7 kg/m3; (308.15 K) 1126.2 ± 4.7 kg/m3; (313.15 K) 1122.4 ± 4.7 kg/m3; (318.15 K) 1116.5 ± 4.6 kg/m3. Also, the mass density by setting is: (323.15 K) 1112.1 ± 4.6 kg/m3; (328.15 K) 1106.6 ± 4.6 kg/m3; (333.15 K) 1102.8 ± 4.6 kg/m3; (338.15 K) 1097.3 ± 4.6 kg/m3.
As for `CCCCOC(=O)C(C)O` (centres undefined) [butyl 2-hydroxypropanoate], the viscosity stood at 3.87 ± 0.39 mPa·s (293.15 K); 3.26 ± 0.33 mPa·s (298.15 K); 2.81 ± 0.28 mPa·s (303.15 K); 2.42 ± 0.24 mPa·s (308.15 K); 2.15 ± 0.22 mPa·s (313.15 K); 1.9 ± 0.19 mPa·s (318.15 K). Further, the viscosity reads like this: (323.15 K) 1.69 ± 0.17 mPa·s; (328.15 K) 1.55 ± 0.16 mPa·s; (333.15 K) 1.43 ± 0.14 mPa·s; (338.15 K) 1.3 ± 0.13 mPa·s. The mass density runs as follows: (293.15 K) 981.5 ± 4 kg/m3; (298.15 K) 977 ± 4 kg/m3; (303.15 K) 973.1 ± 4 kg/m3; (308.15 K) 968.4 ± 4 kg/m3; (313.15 K) 963.5 ± 4 kg/m3; (318.15 K) 958.5 ± 3.9 kg/m3. The mass density by setting is: (323.15 K) 953.9 ± 3.9 kg/m3; (328.15 K) 948.9 ± 3.9 kg/m3; (333.15 K) 944.1 ± 3.9 kg/m3; (338.15 K) 940.1 ± 3.9 kg/m3.
Consider `CCOC(=O)CC(CC(=O)OCC)(OC(C)=O)C(=O)OCC` [triethyl acetyl citrate], for which the mass density (293.15 K) was determined as 1142.1 ± 5.2 kg/m3; the mass density (298.15 K) is 1137.5 ± 5.2 kg/m3; the mass density (303.15 K) was 1133.1 ± 5.2 kg/m3; the mass density (308.15 K) was 1127.6 ± 5.1 kg/m3; the mass density (313.15 K) is 1124.1 ± 5.1 kg/m3; the mass density (318.15 K) is 1118.5 ± 5.1 kg/m3. For the same molecule, the mass density was found to be 1115.1 ± 5.1 kg/m3 (323.15 K), 1110.1 ± 5.1 kg/m3 (328.15 K), 1105.4 ± 5 kg/m3 (333.15 K) and 1100.5 ± 5 kg/m3 (338.15 K). Besides, the viscosity is on record as 46.55 ± 4.7 mPa·s (298.15 K); 34.56 ± 3.5 mPa·s (303.15 K); 25.1 ± 2.6 mPa·s (308.15 K); 17.52 ± 1.8 mPa·s (313.15 K); 13.81 ± 1.4 mPa·s (318.15 K); 10.95 ± 1.1 mPa·s (323.15 K). Also, the viscosity reads like this: (328.15 K) 8.86 ± 0.9 mPa·s; (333.15 K) 7.98 ± 0.81 mPa·s; (338.15 K) 7.02 ± 0.71 mPa·s.
On to `CC(=O)OCC(COC(C)=O)OC(C)=O` [glyceryl triethanoate], for which the viscosity is 21.48 ± 2.2 mPa·s (293.15 K); 16.36 ± 1.6 mPa·s (298.15 K); 12.5 ± 1.3 mPa·s (303.15 K); 9.95 ± 1 mPa·s (308.15 K); 8.21 ± 0.82 mPa·s (313.15 K); 6.75 ± 0.68 mPa·s (318.15 K). The viscosity runs as follows: (323.15 K) 5.66 ± 0.57 mPa·s; (328.15 K) 4.82 ± 0.48 mPa·s; (333.15 K) 4.18 ± 0.42 mPa·s; (338.15 K) 3.67 ± 0.37 mPa·s. Moreover, the mass density is, setting by setting: (293.15 K) 1158.3 ± 4.7 kg/m3; (298.15 K) 1152.9 ± 4.7 kg/m3; (303.15 K) 1147.4 ± 4.7 kg/m3; (308.15 K) 1142 ± 4.6 kg/m3; (313.15 K) 1136.6 ± 4.6 kg/m3; (318.15 K) 1131.1 ± 4.6 kg/m3. Further, the mass density by setting is: (323.15 K) 1125.7 ± 4.6 kg/m3; (328.15 K) 1120.2 ± 4.6 kg/m3; (333.15 K) 1114.8 ± 4.5 kg/m3; (338.15 K) 1109.4 ± 4.5 kg/m3.

For orientation: viscosity means the internal friction of a fluid under shear. What is called mass density is mass per unit of volume.
